Consider 1 compound from patent publication US20170056559A1, “Active Agent-Particle Combination Supporting Bone Regeneration” (ECOLE POLYTECHNIQUE FEDERALE DE LAUSANNE (EPFL), priority 2014, published 2017).

Assay [1] relates to RAW 264.7 murine macrophages. Kind of assay: Cell proliferation assay with RAW 264.7 macrophages (CellTiter 96 AQueous One Solution). Type of assay: cell-based. The settings on record: Zoledronate concentrations from 0.16 to 40 μM.
Procedure: An aqueous Zoledronate solution with a concentration of 2 mg/ml was prepared and sterile filtered. The drug solution was diluted with CCM to a final concentration of 80 μM of Zoledronate. A further dilution with CCM gave Zoledronate supplemented medium (Zol-CCM) with concentrations of 80 μM, 40 μM, 20 μM, 10 μM, 5 μM, 2.5 μM and 1.25 μM. The dilution procedure was repeated with an aqueous dispersion containing 2 mg/ml Zoledronate and 20 mg/ml nHA (nHA-Zol-CCM). The macrophages were seeded with a density of 2500 cell per well in 96-well plates (Microtest™ 96, Becton Dickinson Labware, NJ, USA) and incubated with 100 μl CCM at standard incubation conditions (37° C., 5% CO2). After 24 h of incubation, 100 μl of CCM, Zol-CCM or nHA-Zol-CCM were added to the cells, the final Zoledronate concentrations in the CCM were therefore 40 μM, 20 μM, 10 μM, 5 μM, 2.5 μM, 1.25 μM and 0.625 μM. A cell proliferation assay (CellTiter 96® AQueous One Solution, Promega, Wis., USA) was performed after 24, 48 and 72 hours of cell exposure to the modified CCM. The absorbance was measured with a plate reader (Wallac 1420 Victor 2, Perkin Elmer, Waltham, Mass., USA). Background plates with only the modified media were measured at all time points to avoid a bias due to the nHA particles in the dispersions.
Assay [2] concerns rat femoral model of postmenopausal osteoporosis. Kind of assay: In vivo microCT static and dynamic histomorphometry around femoral screws in ovariectomized rats. The procedure:
The in vivo study in a rat femoral model of postmenopausal osteoporosis was performed following a well-established protocol. All animal procedures were approved by the local animal care and use committee (license no. 2508.1, EXPANIM, SCAV, Epalinges, Switzerland).
Eight virgin female Wistar rats (Janvier Labs, Saint-Berthevin, France) were ovariectomized bilaterally with a dorsal approach at an age of 17 weeks and a weight of 295±18 g to induce an estrogen deficiency related bone loss. The rats were housed 4 per cage under 12 h light to 12 h dark cycles at 22° C. room temperature with 55% humidity. They were fed with a standard rodent diet (KLIBA NAFAG 3436, Provimi Kliba AG, Switzerland) and tab water at libitum. […]
In vivo microCT scans (Skyscan 1076, Bruker microCT, Kontich, Belgium) of the right femur only were performed one day before OVX and one day before screw implantation in order to confirm the bone loss caused by the estrogen deficiency. […] The image taken for the evaluation of the bone loss and for dynamic histomorphometry were processed and analyzed using the softwares Amira® (FEI Vizualisation Sciences Group, Burlington, USA) and CTan (Bruker microCT, Kontich, Belgium). […] For an analysis of the spatio-temporal effect, the static and dynamic bone parameters were analyzed in 4 layers of 368 μm each around the screw. […]

In a further assay the test system is peri-implant bone. The settings on record: Zoledronate locally delivered from a hyaluronic acid hydrogel; cited from earlier work.

In the case of `O=P(O)(O)C(O)(Cn1ccnc1)P(=O)(O)O` [Zoledronate], in assay [1], the cell proliferation entry is on record as “dose-depended proliferation decrease”. Besides, the bone resorption/demineralization peak entry in assay [2] (between days 10 and 31, locally delivered) was “completely inhibited”. Also, the “resorption of bone and degradation of the biomaterial” value in assay [2] (later during the study) is “efficiently inhibited the resorption of present and newly formed bone”. Moreover, in the assay on peri-implant bone, the “increase of early bone formation rate” value is reported as “up to 100%” and the peri-implant bone resorption result was “efficiently inhibiting peri-implant bone resorption”.
